Structures are written as SMILES.

Here are results for 25 compounds from patent publication US8637537B2, “Serine/threonine kinase inhibitors” (Genentech, Inc., priority 2011, dated 2014).

The target of one assay is T1, human recombinant GST-PAK1-KD protein (Homo sapiens, UniProt Q13153).
T1 construct: residues #249-545 of human PAK1, UniProtKP/Swiss Q13153; His6 (N); made in house; host or cells: Sf9 insect cells, pAcGP67 baculovirus expression vector
T1 sequence (Q13153 249-545): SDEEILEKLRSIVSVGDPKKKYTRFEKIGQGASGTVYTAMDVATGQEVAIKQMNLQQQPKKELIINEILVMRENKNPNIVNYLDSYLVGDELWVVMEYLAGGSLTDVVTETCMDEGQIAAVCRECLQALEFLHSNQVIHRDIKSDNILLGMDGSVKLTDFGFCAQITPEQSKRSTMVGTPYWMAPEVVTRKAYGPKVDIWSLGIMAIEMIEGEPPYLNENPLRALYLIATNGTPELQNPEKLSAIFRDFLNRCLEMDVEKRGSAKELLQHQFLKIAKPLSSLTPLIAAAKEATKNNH
Description: GST-PAK1-KD (kinase domain) biochemical assay, microfluidic mobility shift.
Details: not given
On to `CN(Cc1ccc2[nH]cnc2c1Cl)c1nccc(Nc2cc(C3CC3)[nH]n2)n1` [I-87, N^2-((4-chloro-1H-benzo[d]imidazol-5-yl)methyl)-N^4-(5-cyclopropyl-1H-pyrazol-3-yl)-N^2-methylpyrimidine-2,4-diamine], for which the Ki (usually the dissociation constant of the complex between target and ligand, obtained from inhibition or displacement) is below 50 nM.

The assay is the same for the next values; noted with them: Table I, PAK1 Ki class; read-out: Ki.
Turning to `Clc1cnc(NCc2cccc3[nH]ccc23)nc1Nc1cc(C2CC2)[nH]n1` [I-49, N^2-((1H-indol-4-yl)methyl)-5-chloro-N^4-(5-cyclopropyl-1H-pyrazol-3-yl)pyrimidine-2,4-diamine], the Ki lay within 250 to 1000 nM.
The same measure, in the same setting: under `Cn1ccc2cc(CNc3nccc(Nc4cc(C5CC5)[nH]n4)n3)ccc21` [I-33, N^4-(5-Cyclopropyl-1H-pyrazol-3-yl)-N^2-((1-methyl-1H-indol-5-yl)methyl)pyrimidine-2,4-diamine] stands 250 to 1000 nM; under `Clc1c(CNc2nccc(Nc3cc(C4CC4)[nH]n3)n2)ccc2[nH]ccc12` [I-20, N^2-((4-chloro-1H-indol-5-yl)methyl)-N^4-(5-cyclopropyl-1H-pyrazol-3-yl)pyrimidine-2,4-diamine], 50 to 250 nM.
The same measure, in the same setting: the figure for `Cc1cc(Nc2ccnc(NCc3cccc4[nH]ccc34)n2)n[nH]1` [I-56, N^2-((1H-indol-4-yl)methyl)-N^4-(5-methyl-1H-pyrazol-3-yl)pyrimidine-2,4-diamine] is above 1000 nM; for `C[C@H](Nc1nccc(Nc2cc(C3CC3)[nH]n2)n1)c1ccc2[nH]ccc2c1Cl` [I-22, (S)—N^2-(1-(4-chloro-1H-indol-5-yl)ethyl)-N^4-(5-cyclopropyl-1H-pyrazol-3-yl)pyrimidine-2,4-diamine] it is 50 to 250 nM; for `F[C@H]1C[C@@H]1c1cc(Nc2ccnc(NCc3ccc4[nH]cnc4c3Cl)n2)n[nH]1` [I-79, N^2-((4-chloro-1H-benzo[d]imidazol-5-yl)methyl)-N^4-(5-((1R,2S)-2-fluorocyclopropyl)-1H-pyrazol-3-yl)pyrimidine-2,4-diamine] it is below 50 nM.
Still for that read-out and setting: the figure for `C[C@H](Nc1nccc(Nc2cc([C@@H]3C[C@@H]3F)[nH]n2)n1)c1ccc2[nH]ccc2c1` [I-64, N^2—((S)-1-(1H-indol-5-yl)ethyl)-N^4-(5-((1S,2S)-2-fluorocyclopropyl)-1H-pyrazol-3-yl)pyrimidine-2,4-diamine] is 50 to 250 nM; for `Cc1cc(Nc2cc(C3CC3)[nH]n2)nc(NCc2cccc3[nH]ccc23)n1` [I-54, N^2-((1H-indol-4-yl)methyl)-N^4-(5-cyclopropyl-1H-pyrazol-3-yl)-6-methylpyrimidine-2,4-diamine] it is 50 to 250 nM; for `c1cc(CNc2nccc(Nc3cc(CC4CC4)[nH]n3)n2)c2cc[nH]c2c1` [I-48, N^2-((1H-indol-4-yl)methyl)-N^4-(5-(cyclopropylmethyl)-1H-pyrazol-3-yl)pyrimidine-2,4-diamine] it is 50 to 250 nM.
On to `FC1(F)CC(c2cc(Nc3ccnc(NCc4cccc5[nH]ccc45)n3)n[nH]2)C1` [I-104, N^2-((1H-indol-4-yl)methyl)-N^4-(5-(3,3-difluorocyclobutyl)-1H-pyrazol-3-yl)pyrimidine-2,4-diamine], for which the Ki was in the range of 50 to 250 nM.
Regarding `c1cc(CNc2nccc(Nc3cc(C4CC4)[nH]n3)n2)c2cc[nH]c2c1` [I-38, N^2-((1H-Indol-4-yl)methyl)-N^4-(5-cyclopropyl-1H-pyrazol-3-yl)pyrimidine-2,4-diamine], the Ki fell in the range of 50 to 250 nM.
For `C[C@H](Nc1nccc(Nc2cc([C@H]3C[C@@H]3c3ccccc3F)[nH]n2)n1)c1ccc2[nH]cnc2c1` (stereo in doubt) [I-23, N^2—((S)-1-(1H-benzo[d]imidazol-5-yl)ethyl)-N^4-(5-((trans)-2-(2-fluorophenyl)cyclopropyl)-1H-pyrazol-3-yl)pyrimidine-2,4-diamine], the Ki fell in the range of 50 to 250 nM.
The same measure, in the same setting: the figure for `C[C@H](Nc1nccc(Nc2cc(C3CC3)[nH]n2)n1)c1ccc2cc[nH]c2c1` [I-34, (S)—N^2-(1-(1H-indol-6-yl)ethyl)-N^4-(5-cyclopropyl-1H-pyrazol-3-yl)pyrimidine-2,4-diamine] is 250 to 1000 nM; for `C[C@@H](c1ccc2[nH]cnc2c1)N(C)c1nccc(Nc2cc(C3CC3)[nH]n2)n1` [I-9, (S)—N^2-(1-(1H-benzo[d]imidazol-5-yl)ethyl)-N^4-(5-cyclopropyl-1H-pyrazol-3-yl)-N^2-methylpyrimidine-2,4-diamine] it is below 50 nM.

The assay is the same for the next values; noted with them: Table II, PAK1 Ki class; read-out: Ki.
For `C[C@H](Nc1nccc(Nc2cc(C3CC3)[nH]n2)n1)c1cccc2[nH]cnc12` [II-41, (S)-N^2-(1-(1H-benzo[d]imidazol-4-yl)ethyl)-N^4-(5-cyclopropyl-1H-pyrazol-3-yl)pyrimidine-2,4-diamine], the Ki lay within 50 to 250 nM.
On the same count and under the same terms, under `COc1cc(CNc2ncc(F)c(Nc3cc(C4CC4)[nH]n3)n2)c2cn[nH]c2c1` [II-98, N^4-(5-cyclopropyl-1H-pyrazol-3-yl)-5-fluoro-N^2-((6-methoxy-1H-indazol-4-yl)methyl)pyrimidine-2,4-diamine] stands below 50 nM; under `c1cc(CNc2nccc(Nc3cc(C4COC4)[nH]n3)n2)c2cc[nH]c2c1` [II-9, N^2-(1H-indol-4-ylmethyl)-N^4-[5-(oxetan-3-yl)-1H-pyrazol-3-yl]pyrimidine-2,4-diamine], 50 to 250 nM.
On the same count and under the same terms, the figure for `OCCN(Cc1cc(F)cc2[nH]ncc12)c1nccc(Nc2cc(C3CC3)[nH]n2)n1` [II-66, 2-((4-((5-cyclopropyl-1H-pyrazol-3-yl)amino)pyrimidin-2-yl)((6-fluoro-1H-indazol-4-yl)methyl)anino)ethanol] is below 50 nM; for `Fc1cc(CNc2nccc(Nc3cc(C4CC4)[nH]n3)n2)c2nc[nH]c2c1` [II-27, N^4-(5-Cyclopropyl-1H-pyrazol-3-yl)-N^2-((6-fluoro-1H-benzo[d]imidazol-4-yl)methyl)-pyrimidine-2,4-diamine] it is 50 to 250 nM; for `CCc1cc(Nc2ccnc(NCc3cc(F)cc4[nH]ncc34)n2)n[nH]1` [II-107, N^4-(5-ethyl-1H-pyrazol-3-yl)-N^2-((6-fluoro-1H-indazol-4-yl)methyl)pyrimidine-2,4-diamine] it is 50 to 250 nM.
The same measure, in the same setting: under `CN(Cc1cc2nc[nH]c2cc1F)c1nccc(Nc2cc(C3CC3)[nH]n2)n1` [II-113, N^2-((6-fluoro-1H-benzo[d]imidazol-5-yl)methyl)-N^4-(5-cyclopropyl-1H-pyrazol-3-yl)-N^2-methylpyrimidine-2,4-diamine] stands below 50 nM; under `CN(Cc1ccc2[nH]cnc2c1Cl)c1ncc(F)c(Nc2cc(C3COC3)[nH]n2)n1` [II-5, N^2-[(4-Chloro-1H-benzimidazol-5-yl)methyl]-5-fluoro-N^2-methyl-N^4-[5-(oxetan-3-yl)-1H-pyrazol-3-yl]pyrimidine-2,4-diamine], below 50 nM.
For `CN(Cc1ccc2[nH]cnc2c1Cl)c1ncc(F)c(Nc2cc(C(F)(F)F)[nH]n2)n1` [II-39, N^2-((4-Chloro-1H-benzo[d]imidazol-5-yl)methyl)-5-fluoro-N^4-(5-(trifluoromethyl)-1H-pyrazol-3-yl)-N2-methylpyrimidine-2,4-diamine], the Ki fell in the range of 50 to 250 nM.
The same measure, in the same setting: under `CN(C)CCCN(Cc1cc(F)cc2[nH]ncc12)c1nccc(Nc2cc(C3CC3)[nH]n2)n1` [II-48, N^4-(5-cyclopropyl-1H-pyrazol-3-yl)-N^2-(3-(dimethylamino)propyl)-N^2-((6-fluoro-1H-indazol-4-yl)methyl)pyrimidine-2,4-diamine] stands below 50 nM.
